This passage reports inhibition results from ChEMBL document CHEMBL3627608, “Crystal structures of human RIP2 kinase catalytic domain complexed with ATP-competitive inhibitors: Foundations for understanding inhibitor selectivity” (Bioorg Med Chem, 2015).

Assay [1] deals with T1, Mitogen-activated protein kinase kinase kinase 7 (Homo sapiens) (UniProt O43318).
T1 sequence (whole entry): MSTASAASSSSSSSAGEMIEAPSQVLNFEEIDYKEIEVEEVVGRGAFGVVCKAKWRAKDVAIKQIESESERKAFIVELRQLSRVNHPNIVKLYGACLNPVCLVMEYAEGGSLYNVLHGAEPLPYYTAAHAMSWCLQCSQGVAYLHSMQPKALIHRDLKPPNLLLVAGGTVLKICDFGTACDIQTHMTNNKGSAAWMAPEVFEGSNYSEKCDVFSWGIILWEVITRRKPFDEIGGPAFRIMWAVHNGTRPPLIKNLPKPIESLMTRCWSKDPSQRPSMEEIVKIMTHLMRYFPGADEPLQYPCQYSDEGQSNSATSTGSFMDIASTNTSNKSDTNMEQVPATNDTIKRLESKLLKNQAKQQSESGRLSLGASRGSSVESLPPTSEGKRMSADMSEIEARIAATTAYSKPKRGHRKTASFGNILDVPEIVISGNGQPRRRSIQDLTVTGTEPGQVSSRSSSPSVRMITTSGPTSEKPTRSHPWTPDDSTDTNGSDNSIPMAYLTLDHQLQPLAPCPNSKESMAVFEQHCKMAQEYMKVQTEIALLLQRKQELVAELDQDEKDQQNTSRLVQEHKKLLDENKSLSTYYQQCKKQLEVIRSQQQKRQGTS
The assay can be described thus: Inhibition of TAK1 (unknown origin) at 10 uM after 120 mins P33 radiolabeled kinase activity assay.

For assay [2], the target named is Tyrosine-protein kinase JAK1 (Homo sapiens) (UniProt P23458). The assay can be described thus: Inhibition of JAK1 (unknown origin) at 10 uM after 120 mins P33 radiolabeled kinase activity assay.
Chain of Tyrosine-protein kinase JAK1 (Homo sapiens) (P23458 whole entry): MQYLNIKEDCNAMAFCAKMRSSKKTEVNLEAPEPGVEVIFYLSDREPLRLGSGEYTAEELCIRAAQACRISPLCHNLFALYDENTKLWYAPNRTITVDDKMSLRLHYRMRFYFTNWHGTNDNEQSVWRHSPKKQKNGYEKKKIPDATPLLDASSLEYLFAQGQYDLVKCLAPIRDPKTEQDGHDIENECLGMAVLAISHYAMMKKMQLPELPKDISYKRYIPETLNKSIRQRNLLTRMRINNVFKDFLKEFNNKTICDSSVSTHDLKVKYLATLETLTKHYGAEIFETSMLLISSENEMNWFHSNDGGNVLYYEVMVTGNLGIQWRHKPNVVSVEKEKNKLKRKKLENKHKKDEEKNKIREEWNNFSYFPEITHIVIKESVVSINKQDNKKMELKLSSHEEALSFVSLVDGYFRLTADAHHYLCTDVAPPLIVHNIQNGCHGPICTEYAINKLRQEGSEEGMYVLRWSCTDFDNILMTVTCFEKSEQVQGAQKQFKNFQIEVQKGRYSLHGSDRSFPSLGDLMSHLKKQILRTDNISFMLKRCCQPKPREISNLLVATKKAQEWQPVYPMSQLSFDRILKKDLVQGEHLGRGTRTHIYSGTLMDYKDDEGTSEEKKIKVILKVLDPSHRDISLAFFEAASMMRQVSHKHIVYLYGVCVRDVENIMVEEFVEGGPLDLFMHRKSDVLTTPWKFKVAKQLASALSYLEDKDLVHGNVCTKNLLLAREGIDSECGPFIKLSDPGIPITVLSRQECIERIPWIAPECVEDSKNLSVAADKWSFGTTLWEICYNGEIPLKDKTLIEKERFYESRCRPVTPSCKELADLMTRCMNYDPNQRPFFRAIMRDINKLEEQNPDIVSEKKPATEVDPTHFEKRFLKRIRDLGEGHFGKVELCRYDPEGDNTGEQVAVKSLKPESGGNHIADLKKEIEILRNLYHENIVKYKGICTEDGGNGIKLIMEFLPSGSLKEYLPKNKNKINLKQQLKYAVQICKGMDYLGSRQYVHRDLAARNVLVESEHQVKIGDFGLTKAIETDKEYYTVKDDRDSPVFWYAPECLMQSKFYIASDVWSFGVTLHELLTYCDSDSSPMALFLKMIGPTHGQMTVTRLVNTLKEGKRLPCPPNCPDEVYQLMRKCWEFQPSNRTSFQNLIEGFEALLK
Assay [3] concerns the target T2, Mitogen-activated protein kinase 15 (Homo sapiens) (UniProt Q8TD08).
T2 sequence (whole entry): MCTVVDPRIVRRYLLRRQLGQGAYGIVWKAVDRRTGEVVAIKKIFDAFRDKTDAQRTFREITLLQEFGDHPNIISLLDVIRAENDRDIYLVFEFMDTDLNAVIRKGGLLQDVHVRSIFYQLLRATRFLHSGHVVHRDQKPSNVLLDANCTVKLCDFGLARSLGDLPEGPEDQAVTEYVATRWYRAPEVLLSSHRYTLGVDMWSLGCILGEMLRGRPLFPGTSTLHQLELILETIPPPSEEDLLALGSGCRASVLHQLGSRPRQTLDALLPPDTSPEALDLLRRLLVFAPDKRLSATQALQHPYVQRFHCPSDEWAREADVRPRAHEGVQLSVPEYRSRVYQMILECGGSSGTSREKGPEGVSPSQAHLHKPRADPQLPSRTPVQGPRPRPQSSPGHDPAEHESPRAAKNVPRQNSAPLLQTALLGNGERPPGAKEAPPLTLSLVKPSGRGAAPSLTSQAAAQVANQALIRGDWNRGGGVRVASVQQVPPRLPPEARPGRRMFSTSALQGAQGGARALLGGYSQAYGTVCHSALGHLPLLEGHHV
The assay is described as follows: Inhibition of ERK7 (unknown origin) at 10 uM after 120 mins P33 radiolabeled kinase activity assay.

Assay [4] concerns the target T3, Protein kinase C epsilon type (Homo sapiens) (UniProt Q02156).
T3 sequence (whole entry): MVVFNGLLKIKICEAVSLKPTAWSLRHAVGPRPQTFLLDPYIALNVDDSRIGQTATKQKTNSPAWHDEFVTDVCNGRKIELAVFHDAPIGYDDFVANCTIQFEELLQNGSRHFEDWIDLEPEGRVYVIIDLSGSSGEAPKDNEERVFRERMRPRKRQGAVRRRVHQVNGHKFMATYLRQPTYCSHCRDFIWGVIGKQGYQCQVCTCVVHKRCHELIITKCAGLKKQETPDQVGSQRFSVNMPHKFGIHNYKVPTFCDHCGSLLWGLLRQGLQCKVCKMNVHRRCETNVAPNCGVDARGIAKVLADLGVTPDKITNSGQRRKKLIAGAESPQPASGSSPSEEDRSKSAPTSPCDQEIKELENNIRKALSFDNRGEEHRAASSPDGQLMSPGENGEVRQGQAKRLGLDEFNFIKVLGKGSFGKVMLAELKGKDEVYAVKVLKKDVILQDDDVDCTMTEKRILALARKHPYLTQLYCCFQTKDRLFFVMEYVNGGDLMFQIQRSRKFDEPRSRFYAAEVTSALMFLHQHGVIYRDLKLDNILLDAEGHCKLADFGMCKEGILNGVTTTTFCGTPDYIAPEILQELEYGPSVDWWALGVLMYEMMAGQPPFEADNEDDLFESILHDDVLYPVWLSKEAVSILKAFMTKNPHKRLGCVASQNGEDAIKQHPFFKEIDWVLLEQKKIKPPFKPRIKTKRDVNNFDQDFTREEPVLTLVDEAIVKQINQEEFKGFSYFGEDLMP
The assay is described as follows: Inhibition of PKCepsilon (unknown origin) at 10 uM after 120 mins P33 radiolabeled kinase activity assay.

The species named for a further assay is Homo sapiens. The assay is described as follows: Inhibition of PKG1alpha (unknown origin) at 10 uM after 120 mins P33 radiolabeled kinase activity assay.
In assay [5] the target is Bone morphogenetic protein receptor type-1A (Homo sapiens) (UniProt P36894). The assay is described as follows: Inhibition of ALK3 (unknown origin) at 10 uM after 120 mins P33 radiolabeled kinase activity assay.
Chain of Bone morphogenetic protein receptor type-1A (Homo sapiens) (P36894 whole entry): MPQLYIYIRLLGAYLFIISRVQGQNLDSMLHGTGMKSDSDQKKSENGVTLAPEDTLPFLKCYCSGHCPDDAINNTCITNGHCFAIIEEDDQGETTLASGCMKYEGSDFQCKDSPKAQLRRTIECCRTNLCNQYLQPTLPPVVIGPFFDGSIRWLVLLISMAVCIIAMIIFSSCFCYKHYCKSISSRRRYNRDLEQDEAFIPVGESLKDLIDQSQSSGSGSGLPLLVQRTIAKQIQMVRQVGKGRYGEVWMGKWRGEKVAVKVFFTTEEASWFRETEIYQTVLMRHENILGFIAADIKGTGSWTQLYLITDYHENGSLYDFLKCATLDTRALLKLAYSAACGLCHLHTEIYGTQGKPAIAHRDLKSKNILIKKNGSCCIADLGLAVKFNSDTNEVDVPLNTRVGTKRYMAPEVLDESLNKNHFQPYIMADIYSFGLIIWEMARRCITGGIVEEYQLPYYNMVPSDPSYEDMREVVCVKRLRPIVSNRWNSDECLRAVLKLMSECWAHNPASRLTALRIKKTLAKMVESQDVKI
In assay [6] the target is T4, Inhibitor of nuclear factor kappa-B kinase subunit alpha (Homo sapiens) (UniProt O15111).
T4 sequence (whole entry): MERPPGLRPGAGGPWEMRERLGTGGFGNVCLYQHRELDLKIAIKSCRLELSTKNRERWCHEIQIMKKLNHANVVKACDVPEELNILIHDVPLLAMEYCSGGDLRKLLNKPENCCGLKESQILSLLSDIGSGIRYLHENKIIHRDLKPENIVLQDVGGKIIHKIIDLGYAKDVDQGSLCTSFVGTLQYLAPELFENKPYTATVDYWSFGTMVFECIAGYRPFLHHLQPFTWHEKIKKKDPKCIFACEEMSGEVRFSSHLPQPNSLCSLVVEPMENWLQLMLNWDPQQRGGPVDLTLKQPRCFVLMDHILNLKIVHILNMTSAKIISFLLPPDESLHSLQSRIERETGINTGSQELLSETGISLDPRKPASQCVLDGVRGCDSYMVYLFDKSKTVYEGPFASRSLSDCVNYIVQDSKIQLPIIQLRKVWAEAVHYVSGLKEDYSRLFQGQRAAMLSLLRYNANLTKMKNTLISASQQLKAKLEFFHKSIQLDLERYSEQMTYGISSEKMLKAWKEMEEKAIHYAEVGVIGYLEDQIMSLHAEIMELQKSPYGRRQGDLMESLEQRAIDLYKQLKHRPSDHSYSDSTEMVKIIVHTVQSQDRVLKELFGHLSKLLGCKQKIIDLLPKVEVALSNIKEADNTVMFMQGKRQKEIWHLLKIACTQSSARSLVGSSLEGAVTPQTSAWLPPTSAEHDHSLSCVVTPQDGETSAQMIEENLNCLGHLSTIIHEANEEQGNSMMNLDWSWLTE
The assay can be described thus: Inhibition of IKKalpha (unknown origin) at 10 uM after 120 mins P33 radiolabeled kinase activity assay.

One may read the inhibition as the relative decrease from the control value, in per cent. For the compound `COCCNC(=O)c1ccc2c(c1)nc(-c1cnc(-c3ccc(Cl)cc3)[nH]1)n2CCOC`, the inhibition in assay [1] is 6.56%; in assay [2] it was 5.2%; in assay [3] it was 0.89%; in assay [4], 1.13%; in the assay listed under Homo sapiens it was -4.79%; in assay [5] it was -9.9%. Further, the inhibition in assay [6] was determined as 2.39%.

As for `CC(C)(C)c1cc(NC(=O)Nc2ccc(Oc3ccncc3)cc2)no1`, the inhibition in assay [1] was 83.8%; in assay [2] it was -3.4%; in assay [3], 99.8%; in assay [4], 0.69%; in the assay listed under Homo sapiens it was 7.43%; in assay [5], -6.2%. The inhibition in assay [6] came to 11.2%.

In the case of `CS(=O)(=O)c1cccc(Nc2nccc(-c3sc(N4CCOCC4)nc3-c3cccc(NS(=O)(=O)c4c(F)cccc4F)c3)n2)c1`, the inhibition in assay [1] was 83%; in assay [2] it was -2.11%; in assay [3], 87%; in assay [4] it was -0.59%; in the assay listed under Homo sapiens, 9.43%; in assay [5], 75.5%. Further, the inhibition in assay [6] was found to be 3.48%.
